Like-named read-outs stand apart in the source and are kept apart here.
Assays:
Type in all cases: biochemical
WNV NS2B/NS3pro [1] = molecular target: T1, WNV NS2B/NS3pro (West Nile virus, UniProt Q9Q6P4); conditions: read-out: IC50 (μM) b; tetra-peptide substrate Bz-Nle-KRR-AMC
WNV NS2B/NS3pro [2] = molecular target: T1, WNV NS2B/NS3pro; conditions: read-out: IC50 (μM) a; tri-peptide substrate Boc-GKR-AMC, inhibitor 0–40 μM
WNV NS2B/NS3pro [3] = molecular target: T1, WNV NS2B/NS3pro; assay: In vitro protease assay, percent inhibition at a fixed inhibitor concentration; conditions: aprotinin as positive control, final concentration 2–10 μM

T1 sequence (Q9Q6P4 1506-1683): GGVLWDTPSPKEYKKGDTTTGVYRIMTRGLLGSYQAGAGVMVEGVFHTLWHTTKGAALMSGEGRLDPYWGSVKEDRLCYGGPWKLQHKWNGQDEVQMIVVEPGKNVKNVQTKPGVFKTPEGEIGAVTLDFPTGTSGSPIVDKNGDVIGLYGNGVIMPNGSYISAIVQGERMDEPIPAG
T1 sequence (Q9Q6P4 1428-1467): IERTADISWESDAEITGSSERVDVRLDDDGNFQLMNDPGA

Compound	IC50 (WNV NS2B/NS3pro [1]) [µM]	IC50 (WNV NS2B/NS3pro [2]) [µM]	inhibition of WNV NS2B-NS3pro, positive control (WNV NS2B/NS3pro [3]) [%]
Oc1c(C(Nc2nccs2)c2ccccc2)ccc2cccnc12 (stereo not drawn) [compound 23]	12.9 ± 0.54	9.85 ± 0.34	–
aprotinin	–	–	100
